Reference: the pKa sets of Baltruschat and Czodrowski (2020)

Compound | pKa (acidic group) | pKa (basic group)
CCOP(=O)(O)NS(=O)(=O)c1ccccc1 | 1.8 | 
Cn1cc[nH+]c1N=[N+]=[N-] |  | 0.5
Cc1ccc(/C=C/C(=O)C(=O)O)cc1 | 1.96 | 
[O-]c1ccnc2ccccc12 |  | 11.2
CC(C)CCN |  | 10.9
CCOCCn1c(CN2CC[NH+](CCCCn3cccn3)CC2)nc2ccccc21 |  | 4.8
CC(C)(C)c1ccccc1C(=O)O | 3.53 | 
O=C([O-])[C@@H]1O[C@H](Oc2cccc3cccnc23)[C@@H](O)[C@H](O)[C@H]1O |  | 4.62
O=C(O)C1=C(CO)CCC1 | 4.54 | 
CC[C@H]1CN2CCc3cc(OC)c(OC)cc3[C@@H]2C[C@@H]1CC=O |  | 8.11
Nc1cccc([NH3+])c1O |  | 2.7
CC[NH2+]C(C)C(=O)O (configuration not stated) | 2.22 | 
c1coc(C2CN3CCC2CC3)c1 (configuration not stated) |  | 10
CCOC(=O)c1n[nH]c2c(c1=O)c(=O)n(C)c(=O)n2C | 7.32 | 
NCCCCCCO |  | 10.6
Nc1nc(N)[nH+]c(O)n1 | 4.5 | 
CCCCc1nc(N)c2ncsc2n1 |  | 3.49
CCN(CC)CCNc1cc(Nc2ccc(Cl)cc2)nc(C)n1 |  | 9.3
NCCCCCCCCCCCCN |  | 10.8
CC1=C(CC(C)[NH2+]CC(O)c2ccc(N)cc2)CCC1(C)C (configuration not stated) |  | 3.69
CC(C)N1CCC(NN)CC1 |  | 9.65
CC1CCC[C@H](C(C)C(=O)O)C1 (some centres not stated) | 4.59 | 

Compound | pKa (acidic group) | pKa (basic group)
CC(C#N)(CC(=O)O)c1ccccc1 (configuration not stated) | 3.99 | 
Cc1cc(C)c2cccc(O)c2n1 | 10.6 | 6.2
Cc1ccc(-c2nnc(-c3ccccc3)o2)cc1 |  | 1.81
O=[N+]([O-])c1cccc2c[n+](CCO)ccc12 | 11.7 | 
CSc1ccc(N)cc1[N+](=O)[O-] |  | 2.47
O=P(O)(O)C([NH2+]Cc1ccc[nH+]c1)c1ccccc1O (configuration not stated) | 2.28 | 
c1ccc(-c2nc3ccccc3[nH]2)cc1 | 11.9 | 
CCN(CC)CCO |  | 9.84
C=CCSS/C(CCO)=C(/C)N(C=O)Cc1cnc(C)nc1N |  | 5.65
Cn1ncc2c(Nc3ccccc3)ncnc21 |  | 3.53
NC(=O)c1ccc(N)cc1O | 9.12 | 
N#CC[N+](=O)[O-] | 4.86 | 
O=c1ccc(Br)ccc1O | 6.32 | 
NCc1nnn[n-]1 |  | 8.54
CCC[NH+](CCC)CCCNC(=O)/C=N/O | 8.73 | 
Cc1cc(C(=O)O)c(C)o1 | 4.64 | 
Cc1ccc(C(=O)[O-])c(O)c1 | 13.8 | 
Nc1c2c(ncn2Cc2ccccc2)nc[n+]1[O-] | 11 | 2.4
NCCC[NH2+]CCO |  | 8.19
CCCCCCCCCCNCc1ccc(C)cc1 |  | 9.48
Cc1cc([O-])n(C2CCN(C)CC2)n1 |  | 9
C=Cc1ccncc1 |  | 5.62

Compound | pKa (acidic group) | pKa (basic group)
CCSC(C)O (configuration not stated) | 14.3 | 
C=C(C)[C@H]1C[NH2+][C@H](C(=O)O)[C@H]1CC(=O)OC | 1.95 | 
[NH3+]CCCCCc1ccncc1 |  | 5.99
c1cnc2c(c1)ccc1[nH+]cccc12 |  | 1
C[NH+](C)CCCNc1ccnc2ccc([N+](=O)[O-])cc12 |  | 6.99
CCOCCn1c(CN2CC[NH+](CCCCn3cc(C(=O)O)cn3)CC2)nc2ccccc21 |  | 4.9
OCO | 12.8 | 
CN(C)CCCNC(=O)/C=N/[O-] |  | 9.78
Cc1ccc(O)cc1[N+](C)(C)C | 8.28 | 
CC(=O)NNC1CCN(C)CC1 |  | 8.7
CCN(CC)Cc1cccc(C)c1[O-] |  | 10.9
O=NCC(=O)c1ccncc1 | 7.8 | 
CC(=O)[n+]1ccc(C)cc1 | 6.15 | 
CNCC(=O)[O-] |  | 10.1
CC1=C[C@H]2CC[C@@H](O)[C@H]2N1C |  | 11.7
CN(C)CC[N-]S(=O)(=O)c1cccc2c(N(C)C)cccc12 |  | 10.9
Nc1c(Cl)cc([N+](=O)[O-])cc1Cl |  | -2.98
O=C(O)[C@H]1C[C@@H]1c1cccc(Cl)c1 | 4.51 | 
N#Cc1ncnc2nc[nH]c12 | 6.88 | 
CC(C)n1c(N)nc2ccc(/C(=C\C(N)=O)c3cccc(F)c3F)cc21 |  | 6.7
C[C@H](N)C(=O)[O-] |  | 9.72
